# According to patent US20250075126A1, “DIQUATERNARY COMPOUNDS FOR CORROSION INHIBITION AND METHODS OF USE THEREOF” (ChampionX LLC, priority 2023, published 2025):
# Experiments:
# [1] = Bubble cell test, corrosion rate by linear polarization resistance (LPR); conditions: 66° C.; for % Protection: 10 ppm CI composition (2 ppm active) with 0.5 ppm 2-mercaptoethanol, versus avg. blank corrosion rate, 22 hour; for Corrosion rate after 22 hour CI injection: 10 ppm CI composition (20% active = 2 ppm active) with 0.5 ppm 2-mercaptoethanol, CO2-saturated synthetic brine 80% / LVT-200 20%, 100 rpm
# Protocol: Examples were conducted to assess the corrosion inhibitors produced in Example 1 using bubble cell tests to assess corrosion performance using linear polarization resistance testing. The corrosion inhibitor was combined with the sulfur synergist 2-mercaptoethanol.
# The bubble test simulates low flow areas where little or no mixing of water and oil occurs. The test was conducted using synthetic brine (80% of the brine and 20% of a hydrocarbon containing LVT-200) as shown in Table 1.
# The brine was placed into kettles and purged with carbon dioxide resulting in carbon dioxide saturated brine. The brine was continually purged with carbon dioxide at 1 bar CO2 to saturate the brine prior to starting the test for a 2 hour pre-corrode. After the test began, the test cell was blanketed with carbon dioxide one hour prior to electrode insertion and through the duration of the test to maintain saturation. The kettles were stirred at 100 revolutions per minute (rpm) for the duration of the test at 66° C.
# The corrosion rate was measured by Linear Polarization Resistance (LPR) techniques. The working electrode used was carbon steel (C1018 grade). The counter and reference electrodes were both 1018 carbon steel. The electrodes were all cleaned and polished prior to testing. Data were collected for 2 hours before 10 ppm of the corrosion inhibitor composition (containing 20% of the reaction product corrosion inhibitor) was added to the hydrocarbon phase, equating to 2 ppm of the active reaction product corrosion inhibitor with 0.5 ppm 2-mercaptoethanol being introduced into the test cell. Data were collected overnight for 22 hour test duration.
# [2] = Partitioning test, brine/oil, LC-MS analysis; type: physicochemical; conditions: 50 ppm dosed into oil layer; 50 mL synthetic brine, 25 mL aromatic 150, 25 mL LVT 200; room temperature; 1 hour rest
# Protocol: Additional comparison testing was conducted on the alkyl diquaternary compound corrosion inhibitor of Example 1 (corrosion inhibitor VIa) compared to as conventional quaternary ammonium compounds. Partitioning tests were conducted of the corrosion inhibitor (VIa) and a quaternary ammonium compound (trimethylstearyl benzyl chloride quat) to determine the partitioning coefficient via LC-MS (Liquid Chromatography-Mass Spectroscopy) analysis.
# At room temperature, 50 mL of the synthetic brine of Table 1, 25 mL of aromatic 150, and 25 mL of LVT 200 were pipetted into a 125-mL separational funnel. 50 ppm of the corrosion inhibitor (VIa) or trimethylstearyl benzyl chloride quat were dosed into the oil layer of the funnel. The cap was inserted into the funnel and the mixture was shaken vigorously for one minute and then set for an hour. After the hour rest, the bottom layer (brine layer) was drained and collected for LC-MS analysis. LC-MS analysis determines the amount of the corrosion inhibitor (VIa) and trimethylstearyl benzyl chloride quat that partitioned into the brine phase. The amount found in the brine phase was compared to the original amount introduced into the oil phase of the brine/oil solution (50 ppm) and a percentage amount is calculated. The percent amount of the corrosion inhibitor (VIa) and trimethylstearyl benzyl chloride quat present in the brine phase is shown in Table 4.
Compound,% Protection [1] [%],Corrosion rate after 22 hour CI injection [1] [mpy],% Partitioning to brine phase [2] [%]
CCCCCCCCCCCCCCCCCC[N+](C)(C)CC(O)C[N+](CCO)(CCO)CCO (stereo not drawn) [VIa],99.3,1.5,84.1
trimethylstearyl benzyl chloride quat,,,28.4
alkyl dimethyl benzyl chloride quat,99.3,1.4,
